In ChEMBL document CHEMBL1201862, “PubChem BioAssay data set” (2004):
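96-well plates; 48 h exposure; 5 concentrations. Endpoints by linear interpolation between flanking doses. Not reached: highest tested concentration assigned. GI50 = concentration required for 50% inhibition of growth.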 Calls of active or inactive are those of the source. Rule as the data show it: active = GI50 up to about 1.1 µM and inactive = higher.

Legend:
Test in all cases: growth of human tumour cells (NCI), 48 h
NCI/ADR-RES = system: NCI/ADR-RES
OVCAR-4 = system: OVCAR-4
SF-295 = system: SF-295
HOP-62 = system: HOP-62
CCRF-CEM = system: CCRF-CEM
MDA-MB-435 = system: MDA-MB-435
BT-549 = system: BT-549
SF-539 = system: SF-539
NCI-H522 = system: NCI-H522
UACC-257 = system: UACC-257
SK-OV-3 = system: SK-OV-3
Malme-3M = system: Malme-3M
HL-60 = system: HL-60
A498 = system: A498
RXF 393 = system: RXF 393
SK-MEL-5 = system: SK-MEL-5
HCT-15 = system: HCT-15
SK-MEL-28 = system: SK-MEL-28
HOP-92 = system: HOP-92
COLO 205 = system: COLO 205
Hs-578T = system: Hs-578T
OVCAR-8 = system: OVCAR-8
NCI-H23 = system: NCI-H23
MDA-MB-231 = system: MDA-MB-231
DU-145 = system: DU-145
SK-MEL-2 = system: SK-MEL-2
U-251 = system: U-251
HT-29 = system: HT-29
ACHN = system: ACHN
SR = system: SR
A549 = system: A549
IGROV-1 = system: IGROV-1
M14 = system: M14
UACC-62 = system: UACC-62
PC-3 = system: PC-3
K562 = system: K562
SN12C = system: SN12C
HCT-116 = system: HCT-116
TK-10 = system: TK-10
NCI-H460 = system: NCI-H460
T47D = system: T47D
SNB-19 = system: SNB-19
LOX IMVI = system: LOX IMVI
EKVX = system: EKVX
OVCAR-3 = system: OVCAR-3
SW-620 = system: SW-620
KM12 = system: KM12
OVCAR-5 = system: OVCAR-5
SF-268 = system: SF-268
UO-31 = system: UO-31
MOLT-4 = system: MOLT-4
786-0 = system: 786-0
CAKI-1 = system: CAKI-1
MCF7 = system: MCF7
RPMI-8226 = system: RPMI-8226
MDA-N = system: MDA-N
NCI-H226 = system: NCI-H226
HCC 2998 = system: HCC 2998
SNB-75 = system: SNB-75

With `CCCCCC1CC=CC(=O)O1` (stereo unspecified) the GI50 (NCI/ADR-RES) was 5.73 µM (inactive), the GI50 (OVCAR-4) was 1.18 µM (inactive) and the GI50 (SF-295) was 11.5 µM (inactive). For the same compound, the GI50 (HOP-62) was 4.36 µM (inactive), the GI50 (CCRF-CEM) was 2.39 µM (inactive) and the GI50 (MDA-MB-435) was 5.43 µM (inactive). For the same compound, the GI50 (BT-549) was 12.3 µM (inactive), the GI50 (SF-539) was 1.32 µM (inactive) and the GI50 (NCI-H522) was 2.92 µM (inactive). The GI50 (UACC-257) was 14.1 µM (inactive), the GI50 (SK-OV-3) was 7.53 µM (inactive) and the GI50 (Malme-3M) was 0.933 µM (active). For the same compound, the GI50 (HL-60) was 4.93 µM (inactive), the GI50 (A498) was 26.1 µM (inactive) and the GI50 (RXF 393) was 4.49 µM (inactive). The GI50 (SK-MEL-5) was 12.4 µM (inactive), the GI50 (HCT-15) was 5.07 µM and the GI50 (SK-MEL-28) was 4.51 µM (inactive). For the same compound, the GI50 (HOP-92) was 1.2 µM (inactive), the GI50 (COLO 205) was 4.06 µM (inactive) and the GI50 (Hs-578T) was 18 µM (inactive). For the same compound, the GI50 (OVCAR-8) was 5.97 µM (inactive), the GI50 (NCI-H23) was 5.69 µM (inactive) and the GI50 (MDA-MB-231) was 10.6 µM (inactive). For the same compound, the GI50 (DU-145) was 17.4 µM (inactive), the GI50 (SK-MEL-2) was 6.84 µM (inactive) and the GI50 (U-251) was 3.56 µM (inactive). The GI50 (HT-29) was 3.89 µM (inactive), the GI50 (ACHN) was 7.62 µM (inactive) and the GI50 (SR) was 3.39 µM (inactive). The GI50 (A549) was 6.81 µM (inactive), the GI50 (IGROV-1) was 2.94 µM (inactive) and the GI50 (M14) was 12 µM (inactive). For the same compound, the GI50 (UACC-62) was 11.5 µM (inactive), the GI50 (PC-3) was 3.78 µM (inactive) and the GI50 (K562) was 5.4 µM (inactive). The GI50 (SN12C) was 6.73 µM (inactive), the GI50 (HCT-116) was 2.04 µM (inactive) and the GI50 (TK-10) was 11.6 µM (inactive). The GI50 (NCI-H460) was 11 µM (inactive), the GI50 (T47D) was 11.4 µM (inactive) and the GI50 (SNB-19) was 10.5 µM (inactive). For the same compound, the GI50 (LOX IMVI) was 7.62 µM (inactive), the GI50 (EKVX) was 3.24 µM (inactive) and the GI50 (OVCAR-3) was 10.5 µM (inactive). For the same compound, the GI50 (SW-620) was 4.1 µM (inactive), the GI50 (KM12) was 4.39 µM (inactive) and the GI50 (OVCAR-5) was 6.84 µM (inactive). The GI50 (SF-268) was 10.6 µM (inactive), the GI50 (UO-31) was 8.89 µM (inactive) and the GI50 (MOLT-4) was 2.25 µM (inactive). The GI50 (786-0) was 3.85 µM (inactive), the GI50 (CAKI-1) was 3.72 µM (inactive) and the GI50 (MCF7) was 6.52 µM (inactive). The GI50 (RPMI-8226) was 1.91 µM (inactive) and the GI50 (MDA-N) was 6.15 µM (inactive).
`C=CCN1C(=O)CC2[C@@H]3CCc4cc(O)ccc4C3CC[C@]2(C)C1=O` (stereo partly specified) was tested, and the GI50 (NCI/ADR-RES) was > 10 µM (inactive), the GI50 (OVCAR-4) was > 10 µM (inactive) and the GI50 (SF-295) was > 10 µM (inactive). For the same compound, the GI50 (HOP-62) was > 10 µM (inactive), the GI50 (CCRF-CEM) was > 10 µM (inactive) and the GI50 (MDA-MB-435) was > 10 µM (inactive). For the same compound, the GI50 (BT-549) was > 10 µM (inactive), the GI50 (SF-539) was > 10 µM (inactive) and the GI50 (UACC-257) was > 10 µM (inactive). For the same compound, the GI50 (SK-OV-3) was > 10 µM (inactive), the GI50 (Malme-3M) was > 10 µM (inactive) and the GI50 (HL-60) was > 10 µM (inactive). For the same compound, the GI50 (A498) was > 10 µM (inactive), the GI50 (RXF 393) was > 10 µM (inactive) and the GI50 (SK-MEL-5) was > 10 µM (inactive). The GI50 (HCT-15) was > 10 µM, the GI50 (SK-MEL-28) was > 10 µM (inactive) and the GI50 (HOP-92) was > 10 µM (inactive). The GI50 (COLO 205) was > 10 µM (inactive), the GI50 (Hs-578T) was > 10 µM (inactive) and the GI50 (OVCAR-8) was > 10 µM (inactive). For the same compound, the GI50 (NCI-H23) was > 10 µM (inactive), the GI50 (MDA-MB-231) was > 10 µM (inactive) and the GI50 (DU-145) was > 10 µM (inactive). For the same compound, the GI50 (SK-MEL-2) was > 10 µM (inactive), the GI50 (U-251) was > 10 µM (inactive) and the GI50 (HT-29) was > 10 µM (inactive). For the same compound, the GI50 (NCI-H226) was > 10 µM (inactive), the GI50 (ACHN) was > 10 µM (inactive) and the GI50 (SR) was > 10 µM (inactive). For the same compound, the GI50 (A549) was > 10 µM (inactive), the GI50 (HCC 2998) was > 10 µM (inactive) and the GI50 (IGROV-1) was > 10 µM (inactive). For the same compound, the GI50 (M14) was > 10 µM (inactive), the GI50 (UACC-62) was > 10 µM (inactive) and the GI50 (PC-3) was > 10 µM (inactive). The GI50 (K562) was > 10 µM (inactive), the GI50 (SN12C) was > 10 µM (inactive) and the GI50 (HCT-116) was > 10 µM (inactive). For the same compound, the GI50 (TK-10) was > 10 µM (inactive), the GI50 (NCI-H460) was > 10 µM (inactive) and the GI50 (T47D) was > 10 µM (inactive). The GI50 (SNB-19) was > 10 µM (inactive), the GI50 (LOX IMVI) was > 10 µM (inactive) and the GI50 (EKVX) was > 10 µM (inactive). For the same compound, the GI50 (OVCAR-3) was > 10 µM (inactive), the GI50 (SW-620) was > 10 µM (inactive) and the GI50 (KM12) was > 10 µM (inactive). For the same compound, the GI50 (OVCAR-5) was > 10 µM (inactive), the GI50 (SF-268) was > 10 µM (inactive) and the GI50 (UO-31) was > 10 µM (inactive). The GI50 (MOLT-4) was > 10 µM (inactive), the GI50 (786-0) was > 10 µM (inactive) and the GI50 (CAKI-1) was > 10 µM (inactive). For the same compound, the GI50 (MCF7) was > 10 µM (inactive), the GI50 (RPMI-8226) was > 10 µM (inactive) and the GI50 (MDA-N) was > 10 µM (inactive).
With `C=C1NC(=O)C(CC(C(=O)C(=O)Nc2c(C)cccc2C(C)(C)C)C(=O)c2ccc3ccccc3c2)C(=O)N1` (stereo unspecified) the GI50 (NCI/ADR-RES) was > 100 µM (inactive), the GI50 (OVCAR-4) was > 100 µM (inactive) and the GI50 (SF-295) was > 100 µM (inactive). The GI50 (CCRF-CEM) was > 100 µM (inactive), the GI50 (MDA-MB-435) was > 100 µM (inactive) and the GI50 (BT-549) was > 100 µM (inactive). The GI50 (SF-539) was > 100 µM (inactive), the GI50 (UACC-257) was > 100 µM (inactive) and the GI50 (SK-OV-3) was > 100 µM (inactive). The GI50 (HL-60) was > 100 µM (inactive), the GI50 (A498) was > 100 µM (inactive) and the GI50 (RXF 393) was > 100 µM (inactive). The GI50 (SK-MEL-5) was > 100 µM (inactive), the GI50 (HCT-15) was > 100 µM and the GI50 (SK-MEL-28) was > 100 µM (inactive). The GI50 (HOP-92) was > 100 µM (inactive), the GI50 (COLO 205) was > 100 µM (inactive) and the GI50 (Hs-578T) was > 100 µM (inactive). For the same compound, the GI50 (OVCAR-8) was > 100 µM (inactive), the GI50 (NCI-H23) was > 100 µM (inactive) and the GI50 (MDA-MB-231) was > 100 µM (inactive). For the same compound, the GI50 (SNB-75) was > 100 µM (inactive), the GI50 (DU-145) was > 100 µM (inactive) and the GI50 (SK-MEL-2) was > 100 µM (inactive). The GI50 (U-251) was > 100 µM (inactive), the GI50 (HT-29) was > 100 µM (inactive) and the GI50 (NCI-H226) was > 100 µM (inactive). For the same compound, the GI50 (ACHN) was > 100 µM (inactive), the GI50 (SR) was > 100 µM (inactive) and the GI50 (A549) was > 100 µM (inactive). For the same compound, the GI50 (HCC 2998) was > 100 µM (inactive), the GI50 (M14) was > 100 µM (inactive) and the GI50 (UACC-62) was > 100 µM (inactive). The GI50 (PC-3) was > 100 µM (inactive), the GI50 (K562) was > 100 µM (inactive) and the GI50 (SN12C) was > 100 µM (inactive). For the same compound, the GI50 (HCT-116) was > 100 µM (inactive), the GI50 (NCI-H460) was > 100 µM (inactive) and the GI50 (T47D) was > 100 µM (inactive). The GI50 (SNB-19) was > 100 µM (inactive), the GI50 (LOX IMVI) was > 100 µM (inactive) and the GI50 (OVCAR-3) was > 100 µM (inactive). The GI50 (SW-620) was > 100 µM (inactive), the GI50 (KM12) was > 100 µM (inactive) and the GI50 (OVCAR-5) was > 100 µM (inactive). For the same compound, the GI50 (SF-268) was > 100 µM (inactive), the GI50 (UO-31) was > 100 µM (inactive) and the GI50 (MOLT-4) was > 100 µM (inactive). For the same compound, the GI50 (786-0) was > 100 µM (inactive), the GI50 (CAKI-1) was > 100 µM (inactive) and the GI50 (MCF7) was > 100 µM (inactive). The GI50 (RPMI-8226) was > 100 µM (inactive) and the GI50 (MDA-N) was > 100 µM (inactive).
